Laboratory results from patent US6541463B1, “Inhibitors of type 5 and type 3 17β-hydroxysteroid dehydrogenase and methods for their use” (Endorecherche, Inc., priority 1998, dated 2003).

Experiments:
[1] = target: T1, human type 2 17β-hydroxysteroid dehydrogenase (Homo sapiens, UniProt P37059); test: Enzymatic assay for type 2 17β-HSD; assay type: biochemical; details: for inhibition: read-out: Inhibition Type 2 17β-HSD Activity [% Inh. at 3 · 10^−8M]; for IC50: read-out: Inhibition Type 2 17β-HSD Activity IC50
T1 construct: expressed in transfected cells; host or cells: 293 cells, transient transfection; microsomal fraction (100 000×g pellet)
T1 sequence (P37059 1-387): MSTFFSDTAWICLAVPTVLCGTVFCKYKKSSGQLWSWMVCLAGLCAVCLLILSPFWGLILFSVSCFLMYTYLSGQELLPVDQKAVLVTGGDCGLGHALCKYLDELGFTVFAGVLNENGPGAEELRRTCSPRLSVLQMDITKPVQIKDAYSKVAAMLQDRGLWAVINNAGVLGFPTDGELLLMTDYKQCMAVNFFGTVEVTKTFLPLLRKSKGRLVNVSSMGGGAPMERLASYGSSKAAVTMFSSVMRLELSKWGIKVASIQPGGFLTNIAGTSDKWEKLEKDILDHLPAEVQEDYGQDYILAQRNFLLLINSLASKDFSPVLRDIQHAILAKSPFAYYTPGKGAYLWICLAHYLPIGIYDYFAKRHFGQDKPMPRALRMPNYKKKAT
In short: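 Enzymes from transiently transfected 293 cells (cytosol for type 1, microsomes for types 2 and 3 17β-HSD) were incubated 1 h at 37° C in pH 7.4 phosphate/20% glycerol with 2 mM NADPH or NAD+ and 0.1 μM 14C-substrate (estrone, 4-dione, or DHT for 3α-HSD); metabolites quantified by TLC; preliminary % inhibition at 3.10^−6M.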

ZR-75-1 cells = test: Estrogenic activity: stimulation of proliferation of ZR-75-1 cells; assay type: cell-based, human
Method: […] The manner in which the stimulation is determined is described in “Other Tests; C-Estrogenic/Antiestrogenic activity” Lower numbers are desirable. ND means that a determination was not done.
Estrogenic/antiestrogenic activity of some preferred compounds has been measured using the […] human breast cancer cell line as described in more detail below.
All media and medium supplments were purchased from Sigma. Cells were subcultured weekly by treatment with a pancreatic solution containing EDTA (0.2 g/L). The cell cultures used for the experiments herein describied were between passages 89 and 94.
Cells in their logarithmic growth phase were harvested, briefly centrifuged, and resuspended in RPMI 1640. Cells were then plated in triplicate in LIMBRO 24-well plastic culture plates (2 cm^2/well). Since plating density influences the effect of hormones on ZR-75-1 cell growth, cells were plated at a density of 1×10^4 cells/well. […] Control cultures received the ethanol vehicle only. Cells were then allowed to grow at 37° C. for 10 days with medium changes (of identical composition) every 2 days.
After E2 and/or antiestrogen treatment, cells were harvested by addition of 0.5 ml of a pancreatin solution (Sigma) for 5-10 min at 37° C. before addition of 0.5 mnl of RPMI 1640 containing 5% dextran coated […] bovine serum in order to block enzymatic action. Cell number (0.10 ml aliquot) was determined by measurement of DNA content as previously described (Simard et al., Endocrinology 126: 3223-3231,1990).

progesterone receptor = test: Progesterone receptor assay: inhibition of [3H]R5020 binding, uterine cytosol; set-up: species or system rat
Method: The manner in which the percentage of inhibition is determined is described in “Other Tests; E-Progesterone Receptor Assay”. Lower numbers are desirable.
[17α-methyl-^3H]-promegestone (R5020) (84 Ci/mmol) and the corresponding unlabeled compound were purchased from New England Nuclear (Lachine, Québec, Canada). All other chemicals were of analytical grade.
Stock solutions of the unlabeled steroids were kept at 4° C. in ethanol. The desired steroid solutions were then prepared by appropriate dilution in buffer B (10 mM Tris-HCl, 1.5 mM EDTA, 10 mM α-monothioglycerol, pH 7.4) containing 30% ethanol.
Female Sprague-Dawley rats weighing 200-300 g were obtained from Charles-River Inc. (St-Constant, Québec, Canada). The rats were gonadectomized under general anesthesia (Isoflurane) and killed by cervical dislocation 24 hours later. The uteri are rapidly removed, dissected free from adhering tissue and frozen on dry-ice. Tissues were kept at −80° C. until use.
All procedures were performed at 4° C. Tissues were pulverized frozen in dry ice with a Thermovac pulverizer. The samples were then homogenized in 10 vol (w/v) of buffer A (25 mM Tris-HCl, 1.5 mM EDTA, 10 mM α-monothioglycerol, 10% glycerol, 10 mM sodium molybdate, pH 7.4) using a Polytron PT-10 homogenizer (Brinkmann Instruments, Canada) at a setting of 5 for two periods of 10 sec, with intervals of 10 sec for cooling. The homogenate was then centrifuged at 105,000×g for 90 min. The supernatant was used immediately for assay.
Progesterone binding was measured using the dextran-coated charcoal adsorption technique. […] Each concentration was done in triplicate. Assay was ended with 300 μl of DCC (1% Norit A and 0.1% Dextran T-70 in Buffer B). After 10 min of incubation, tubes were centrifuged at 2,000×g for 10 min. and decanted in vials with 6 ml of BCS liquid scintillation (New England Nuclear, Dupont). The radioactivity was measured in a Beckman counter at a counting efficiency of 35%.

[2] = Table 4′, bracketed values, 3 · 10^−8M

| Compound | inhibition [1, 2] | ZR-75-1 Activity, Basal E^−6 (ZR-75-1 cells; Table 4′) | ZR-75-1 Activity, Basal E^−8 (ZR-75-1 cells; Table 4′) | % Inhibition Progesterone Receptor E^−6 (progesterone receptor; Table 4′, E^−6) | % Inhibition Progesterone Receptor E^−8 (progesterone receptor; Table 4′, E^−8) | IC50 ([1]; Table 4′) | other results |
| --- | --- | --- | --- | --- | --- | --- | --- |
| C[C@]12CCC3c4ccc(O)cc4CCC3C1CC[C@@]21CCCC(=O)O1 (stereo partly drawn) [EM-919, 1,3,5(10)-estratrien-3-ol-17(R)-spiro-2′(6′-oxo)tetrahydropyran] | 86% | −20% | 0% | – | – | – | % Inhibition Progesterone Receptor *E^−5 (progesterone receptor; Table 4′, starred values, E^−5): 68* %; % Inhibition Progesterone Receptor *E^−7 (progesterone receptor; Table 4′, starred values, E^−7): 8* % |
| CC1CCC2(CCC3C4CCc5ccccc5C4CCC32C)OC1=O (centres unmarked) [EM-1025] | 64% | 201% | 20% | 4% | 0% | – | – |
| CCC[C@@H]1CC2C3C=CC4=CC(=O)CC[C@]4(C)C3CC[C@]2(C)C1=O (some centres unmarked) [EM-1097] | – | – | – | – | – | – | inhibition at 3 µM ([1]; 3 · 10^−6 M, value in square brackets, read-out: Inhibition Type 2 17B-HSD Activity [% Inh. at 3 · 10^−6 M]): 53%; ZR-75-1 Activity, Basal E^−6 (ZR-75-1 cells): 10; ZR-75-1 Activity, Basal E^−8 (ZR-75-1 cells): −8; % Inhibition Progesterone Receptor E^−6 (progesterone receptor; E^−6): 0%; % Inhibition Progesterone Receptor E^−8 (progesterone receptor; E^−8): 2% |
| CC1CCC2(CCC3C4CCc5cc(O)c([N+](=O)[O-])cc5C4CCC32C)OC1=O [EM-1126, 2-Nitro-1,3,5(10)-estratrien-3-ol-17(R)-spiro-2′-(5′-methyl-6′-oxo)tetrahydropyran] | – | −89% | 0% | 14% | 5% | – | Inhibition Type 2 17β-HSD Activity [% Inh. at 3 · 10^−8M] [1, 2]: [59] % |
| CC1CCC2(CCC3C4CCc5cc(O)c([N+](=O)[O-])cc5C4CCC32C)OC1=O [EM-1131, 2-Nitro-1,3,5(10)-estratrien-3-ol-17(R)-spiro-2′-(5′-methyl-6′-oxo)tetrahydropyran] | 70% | 15% | 7% | 10% | 2% | – | – |
| CC(=O)[C@@]1(OC(=O)CCCCF)CCC2C3C=C(C)C4=CC(=O)CC[C@]4(C)C3CC[C@@]21C (some centres unmarked) [EM-1195-CS] | – | – | – | – | – | – | Inhibition Type 2 17β-HSD Activity [% Inh.] ([1]; at 3.10^-8M): [40] %; ZR-75-1 Activity, Basal (ZR-75-1 cells; E^−6, in %): 18; ZR-75-1 Activity, Basal (ZR-75-1 cells; E^−8, in %): −11; % Inhibition Progesterone Receptor (progesterone receptor; E^−6): 70%; % Inhibition Progesterone Receptor (progesterone receptor; E^−8): 0% |
| CCS(=O)(=O)Oc1ccc2c(c1)CCC1C2CCC2(C)C1CCC21CCC(C)(C)C(=O)O1 (centres unmarked) [EM-1364-CS] | 73% | +36% | 0% | 0% | 0% | – | – |
| CC1(C)CCC2(CCC3C4CCc5cc(OS(C)(=O)=O)ccc5C4CCC32C)OC1=O (centres unmarked) [EM-1365-CS] | – | 0% | −17% | 2% | 2% | > 10 µM | – |
| COCCOc1ccc2c(c1)CCC1C2CCC2(C)C1CCC21CCC(C)(C)C(=O)O1 [EM-1368-CS, 3-Methoxyethoxy-1,3,5(10)-estratrien-17(R)-spiro-2′-(5′,5′-dimethyl-6′-oxo)-tetrahydropyran] | 73% | +15% | 0% | 3% | 0% | – | – |
| CCOc1ccc2c(c1)CCC1C2CC[C@@]2(C)C1CC[C@@]21CCC(C)(C)C(=O)O1 (stereo partly drawn) [EM-1369, 3-Ethoxy-1,3,5(10)-estratrien-17(R)-spiro-2′-(5′,5′-dimethyl-6′-oxo)-tetrahydropyran] | 62% | +84% | 0% | 3% | 1% | – | – |
| COc1ccc2c(c1)CCC1C2CCC2(C)C1CCC21CCC(C)(C)C(=O)O1 (centres unmarked) [EM-1370] | 33% | +24% | 0% | 0% | 0% | – | – |
| COCCOc1cc2c(cc1Cl)C1CCC3(C)C(CCC34CCC(C)(C)C(=O)O4)C1CC2 (centres unmarked) [EM-1371-CS] | – | +137% | 0% | 3% | 0% | > 10 µM | – |
| COc1ccc2c(c1)C(=O)CC1C3CCC4(CCC(C)(C)C(=O)O4)C3(C)CCC21O (centres unmarked) [EM-1386] | – | −12% | 0% | 0% | 0% | > 10 µM | – |
| COCCOc1cc2c(cc1C#N)C1CC[C@@]3(C)C(CC[C@@]34CCC(C)(C)C(=O)O4)C1CC2 (some centres unmarked) [EM-1396] | – | 0% | 0% | 0% | 0% | > 10 µM | – |
| COCCOc1cc2c(cc1C(=O)OC)C1CC[C@@]3(C)C(CC[C@@]34CCC(C)(C)C(=O)O4)C1CC2 (stereo partly drawn) [EM-1402-CS, 2-Carbomethoxy-3-(2″-methoxyethyloxy)-1,3,5(10)-estratrien 17(R)-spiro-2′-(5′,5′-dimethyl-6′-oxo)tetrahydropyran] | – | −10% | 0% | 4% | 2% | > 10 µM | – |
| CC1(C)CC[C@@]2(CCC3C4CCc5cc(C(N)=O)ccc5C4CCC32C)OC1=O (some centres unmarked) [EM-1404] | – | 0% | 0% | 0% | 0% | > 10 µM | – |
| CC1CC(=O)OC2(CCC3C4CCc5cc(O)ccc5C4CCC32C)C1 [PB-132-142, 3-Hydroxy-1,3,5(10)-estratrien-17(R)-spiro-2′-(4′-methyl-6′-oxo)tetrahydropyran] | 69% | 91% | 38% | – | – | – | – |
| COC(=O)C1CCC2(CCC3C4CCc5cc(O)ccc5C4CCC32C)OC1=O [PB-132-146, 3-Hydroxy-1,3,5(10)-estratrien-17(R)-2′-(5′-methoxycarbonyl-6′-oxo)tetrahydropyran] | 75% | 91% | 0% | – | – | – | – |
| C=CCC1CCC2(CCC3C4CCc5cc(O)ccc5C4CCC32C)OC1=O [PB-132-152, 3-Hydroxy-1,3,5(10)-estratrien-17(R)-2′-(5′-allyl-6′-oxo)tetrahydropyran] | 50% | 90% | 39% | – | – | – | – |
